From PubChem BioAssay (NCI) come the findings set out here.

Among the test systems are HOP-18 NSCLC; LXFL 529 NSCLC; M19-MEL melanoma; DMS 114 small cell lung; KM20L2 colon; RXF-631 renal; SNB-78 CNS; P388 leukemia; P388/ADR leukemia; SN12K1 renal.
What all share (test): NCI tumour cell line growth inhibition, 48 h

Molecules are shown by their SMILES.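 Following 48 hours of exposure in 96-well plates, responses at five concentrations were used to interpolate endpoints linearly. GI50: concentration for 50% inhibition of growth. TGI marks complete inhibition of growth.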

On to `CC(=O)[CH-]C(=O)c1ccccc1.CC(=O)[CH-]C(=O)c1ccccc1.C[C@]12CCC(=O)C=C1CC[C@@H]1C2CC[C@@]2(C)C1CC[C@]2(C)[O-].C[C@]12CCC(=O)C=C1CC[C@@H]1C2CC[C@@]2(C)C1CC[C@]2(C)[O-].Cl.[Ti+4]` (stereo partly specified), for which the GI50 with HOP-18 NSCLC was 40 µM; in the test on LXFL 529 NSCLC, 20.7 µM; in the test with M19-MEL melanoma, 26.5 µM. In addition, the values for the TGI in the test with HOP-18 NSCLC, in the test with LXFL 529 NSCLC and in the test on M19-MEL melanoma were above 100 µM, 76.4 µM and above 100 µM, respectively.
As to `O=C1C(CN2CCOCC2)CCCC1CN1CCOCC1` (stereo unspecified), the TGI with DMS 114 small cell lung amounted to 11.4 µM; in the test on HOP-18 NSCLC, 3.2 µM; in the test with KM20L2 colon, 58.2 µM; with LXFL 529 NSCLC, 2.96 µM; in the test with M19-MEL melanoma, 17.3 µM; with RXF-631 renal it was 30.4 µM. Besides, the TGI in the test on SNB-78 CNS came to 5.02 µM.
As to `O=C1Nc2ccccc2Nc2ccncc21`, the TGI was above 100 µM with DMS 114 small cell lung; above 100 µM in the test on HOP-18 NSCLC; above 100 µM in the test with KM20L2 colon; above 100 µM in the test on M19-MEL melanoma; above 100 µM in the test on P388 leukemia; above 31.6 µM in the test on P388/ADR leukemia. The TGI in the test on SN12K1 renal and with SNB-78 CNS was above 100 µM each time.
